# Where two headings read alike, the source gives them in different places.
# Assays:
# [1] = system: methicillin-sensitive Staphylococcus aureus; assay: MIC by broth micro-dilution (CLSI), methicillin-sensitive S. aureus; format: cell-based; conditions: MSSA S. aureus ATCC29213
# [2] = system: carbapenemase producing K. pneumoniae; assay: MIC by broth micro-dilution (CLSI), carbapenemase producing K. pneumoniae; format: cell-based, Klebsiella pneumoniae
# [3] = system: carbapenem sensitive Escherichia coli; assay: MIC by broth micro-dilution (CLSI), carbapenem sensitive E. coli; format: cell-based
# [4] = system: carbapenem sensitive Pseudomonas aeruginosa; assay: MIC by broth micro-dilution (CLSI), carbapenem sensitive P. aeruginosa; format: cell-based
# [5] = Staphylococcus aureus, ATCC 29213 / MSSA, read-out: MIC
# [6] = Klebsiella pneumoniae, ATCCBAA1705, KPC-2 K. pneumoniae ATCC BAA-1705, read-out: MIC
# [7] = Escherichia coli, ATCC25922, ESBL −ve E. coli ATCC25922, read-out: MIC
# [8] = Pseudomonas aeruginosa, ATCC27853, Meropenem susceptible P. aeruginosa ATCC27853, read-out: MIC
# [9] = Meropenem susceptible P. aeruginosa ATCC27853
Structure (SMILES),"MIC [1, 5]","MIC [2, 6]","MIC [3, 7]","MIC [4, 8]",MIC [1],MIC ([2]; KPC-2 K. pneumoniae ATCC BAA-1705),MIC ([3]; ESBL −ve E. coli ATCC25922),"MIC [4, 9]"
"C[C@@H](NC(=O)Cn1cnnn1)[C@H]1C(=O)N2C(C(=O)O)=C(S[C@@H]3CN[C@H](C(=O)N4CCN(CC(N)=O)CC4)C3)[C@H](C)[C@H]12 [Example 417, (4R,5S,6R)-6-((R)-1-(2-(1H-tetrazol-1-yl)acetamido)ethyl)-3-((3S,5S)-5-(4-(2-amino-2-oxoethyl)piperazine-1-carbonyl)pyrrolidin-3-ylthio)-4-methyl-7-oxo-1-azabicyclo[3.2.0]hept-2-ene-2-carboxylic acid]",8 µg/mL,2 µg/mL,0.5 µg/mL,16 µg/mL,,,,
"Cc1nnnn1CC(=O)N[C@H](C)[C@H]1C(=O)N2C(C(=O)O)=C(S[C@@H]3CN[C@H](C(=O)N4CC[C@@H](N)C4)C3)[C@H](C)[C@H]12 [Example 331, (4R,5S,6R)-3-((3S,5S)-5-((R)-3-aminopyrrolidine-1-carbonyl)pyrrolidin-3-ylthio)-4-methyl-6-((R) - 1-(2-(5-methyl-1H-tetrazal-1-yl)acetamido)ethyl)-7-oxo-1-azabicyclo[3.2.0]hept-2-ene-2-carboxylic acid]",4 µg/mL,4 µg/mL,0.25 µg/mL,8 µg/mL,,,,
C[C@@H](NC(=O)Cn1cnnn1)[C@H]1C(=O)N2C(C(=O)O)=C(S[C@@H]3CN[C@H](C(=O)N(C)C)C3)[C@H](C)[C@H]12 [Example 283],16 µg/mL,0.5 µg/mL,0.25 µg/mL,8 µg/mL,,,,
CNCC(=O)N[C@H](C)[C@H]1C(=O)N2C(C(=O)O)=C(SCCn3cc(O)c(=O)cc3CN)[C@H](C)[C@H]12 [Example 257],> 128 µg/mL,16 µg/mL,4 µg/mL,128 µg/mL,,,,
CNCC(=O)N[C@H](C)[C@H]1C(=O)N2C(C(=O)O)=C(S[C@@H]3CN[C@H](CNC(=O)[C@@H]4CCC(N)C4)C3)[C@H](C)[C@H]12 (some centres unmarked) [Example 262],32 µg/mL,16 µg/mL,4 µg/mL,64 µg/mL,,,,
CNCC(=O)N[C@H](C)[C@H]1C(=O)N2C(C(=O)O)=C(S[C@@H]3CN[C@H](CNC(=O)c4cc(=O)c(O)cn4C)C3)[C@H](C)[C@H]12 [Example 254],64 µg/mL,16 µg/mL,8 µg/mL,128 µg/mL,,,,
C[C@@H](NC(=O)Cn1cnnn1)[C@H]1C(=O)N2C(C(=O)O)=C(S[C@@H]3CNC(CNC(=O)[C@H]4CSCN4)C3)[C@H](C)[C@H]12 (some centres unmarked) [Example 354],2 µg/mL,1 µg/mL,0.125 µg/mL,32 µg/mL,,,,
C[C@@H](NC(=O)Cn1ccnn1)[C@H]1C(=O)N2C(C(=O)O)=C(S[C@@H]3CN[C@H](C(=O)N(C)C)C3)[C@H](C)[C@H]12 [Example 296],4 µg/mL,2 µg/mL,0.5 µg/mL,64 µg/mL,,,,
C[C@@H](NC(=O)C(F)F)[C@H]1C(=O)N2C(C(=O)O)=C(S[C@@H]3CN[C@H](CNC(=O)[C@@H]4C[C@H](N)CN4)C3)[C@H](C)[C@H]12 [Example 259],2 µg/mL,16 µg/mL,4 µg/mL,> 128 µg/mL,,,,

# Now from value to molecule:
"MIC [1, 5]","MIC [2, 6]","MIC [3, 7]","MIC [4, 8]",MIC [1],MIC ([2]; KPC-2 K. pneumoniae ATCC BAA-1705),MIC ([3]; ESBL −ve E. coli ATCC25922),"MIC [4, 9]",Structure (SMILES)
8 µg/mL,4 µg/mL,0.5 µg/mL,2 µg/mL,,,,,"C[C@@H](NC(=O)Cn1cnnn1)[C@H]1C(=O)N2C(C(=O)O)=C(S[C@@H]3CN[C@H](C(=O)N4C[C@H]5C[C@H](N)C[C@@]5(N)C4)C3)[C@H](C)[C@H]12 [Example 574, (4R,5S,6R)-6-((R)-1-(2-(1H-tetrazol-1-yl)acetamido)ethyl)-3-((3S,5S)-5-((3aS,5S,6aR)-3a,5-diaminooctahydrocyclo-penta[c]pyrrole-2-carbonyl)pyrrolidin-3-ylthio)-4-methyl-7-oxo-1-azabicyclo[3.2.0]hept-2-ene-2-carboxylic acid]"
2 µg/mL,1 µg/mL,0.5 µg/mL,2 µg/mL,,,,,"C[C@@H](NC(=O)Cn1cnnn1)[C@H]1C(=O)N2C(C(=O)O)=C(S[C@@H]3CN[C@H](C(=O)N4CC5CC(N)CC5C4)C3)[C@H](C)[C@H]12 (stereo partly drawn) [Example 543, (4R,5S,6R)-6-((R)-1-(2-(1H-tetrazol-1-yl)acetamido)ethyl)-3-((3S,5S)-5-(5-aminooctahydrocyclopenta[c]pyrrole-2-carbonyl)pyrrolidin-3-ylthio)-4-methyl-7-oxo-1-azabicyclo[3.2.0]hept-2-ene-2-carboxylic acid]"
,,,,4 µg/mL,2 µg/mL,0.25 µg/mL,2 µg/mL,"C[C@@H](NC(=O)Cn1cnnn1)[C@H]1C(=O)N2C(C(=O)O)=C(S[C@@H]3CN[C@H](C(=O)N4CCC5CNCC5(CO)C4)C3)[C@H](C)[C@H]12 (single isomer, unassigned) [Example 537]"
4 µg/mL,1 µg/mL,0.25 µg/mL,1 µg/mL,,,,,"C[C@@H](NC(=O)Cn1cnnn1)[C@H]1C(=O)N2C(C(=O)O)=C(S[C@@H]3CN[C@H](C(=O)N4CC5CNC5C4)C3)[C@H](C)[C@H]12 (single isomer, unassigned) [Example 590]"
2 µg/mL,2 µg/mL,0.5 µg/mL,2 µg/mL,,,,,C[C@@H](NC(=O)Cn1cnnn1)[C@H]1C(=O)N2C(C(=O)O)=C(S[C@@H]3CN[C@H](C(=O)N4C[C@H](N)C[C@H]4CN)C3)[C@H](C)[C@H]12 [Example 444]
16 µg/mL,4 µg/mL,0.5 µg/mL,16 µg/mL,,,,,"C[C@@H](NC(=O)Cn1cnnn1)[C@H]1C(=O)N2C(C(=O)O)=C(S[C@@H]3CN[C@H](C(=O)N4C[C@H](N)C[C@H]4C(=O)N4CC[C@@H](N)C4)C3)[C@H](C)[C@H]12 [Example 447, (4R,5S,6R)-6-((R)-1-(2-(1H-tetrazol-1-yl)acetamido)ethyl)-3-((3S,5S)-5-((2S,4R)-4-amino-2-((R)-3-aminopyrrolidine-1-carbonyl)pyrrolidine-1-carbonyl)pyrrolidin-3-ylthio)-4-methyl-7-oxo-1-azabicyclo[3.2.0]hept-2-ene-2-carboxylic acid]"
4 µg/mL,2 µg/mL,0.25 µg/mL,,,,,4 µg/mL,"C[C@@H](NC(=O)Cn1cnnn1)[C@H]1C(=O)N2C(C(=O)O)=C(S[C@@H]3CN[C@H](C(=O)N4CCC(C(=O)NCC(O)CN)CC4)C3)[C@H](C)[C@H]12 (single isomer, unassigned) [Example 572]"
2 µg/mL,2 µg/mL,0.25 µg/mL,4 µg/mL,,,,,"C[C@@H](NC(=O)Cn1cnnn1)[C@H]1C(=O)N2C(C(=O)O)=C(S[C@@H]3CN[C@H](CC(=O)N4CCC(N)C4)C3)[C@H](C)[C@H]12 (stereo in doubt) [Example 536, (4R,5S,6R)-6-((R)-1-(2-(1H-tetrazol-1-yl)acetamido)-ethyl)-3-((3S,5R)-5-(2-((R)-3-aminopyrrolidin-1-yl)-2-oxoethyl)pyrrolidin-3-ylthio)-4-methyl-7-oxo-1-azabicyclo[3.2.0]hept-2-ene-2-carboxylic acid]"
4 µg/mL,2 µg/mL,0.5 µg/mL,2 µg/mL,,,,,"C[C@@H](NC(=O)Cn1cnnn1)[C@H]1C(=O)N2C(C(=O)O)=C(S[C@@H]3CN[C@H](C(=O)N4CC[C@H](N)[C@@H](O)C4)C3)[C@H](C)[C@H]12 [Example 554, (4R,5S,6R)-6-((R)-1-(2-(1H-tetrazol-1-yl)acetamido)ethyl)-3-((3S,5S)-5-((3S,4S)-4-amino-3-hydroxypiperidine-1-carbonyl)-pyrrolidin-3-ylthio)-4-methyl-7-oxo-1-azabicyclo[3.2.0]hept-2-ene-2-carboxylic acid]"
2 µg/mL,1 µg/mL,0.25 µg/mL,2 µg/mL,,,,,"C[C@@H](NC(=O)Cn1cnnn1)[C@H]1C(=O)N2C(C(=O)O)=C(S[C@@H]3CN[C@H](C(=O)N4CC5CCN(C(=N)N)C5C4)C3)[C@H](C)[C@H]12 (single isomer, unassigned) [Example 569]"
8 µg/mL,1 µg/mL,0.25 µg/mL,4 µg/mL,,,,,"C[C@@H](NC(=O)Cn1cnnn1)[C@H]1C(=O)N2C(C(=O)O)=C(S[C@@H]3CN[C@H](C(=O)N4C[C@@H](O)[C@H](N)[C@H]4CO)C3)[C@H](C)[C@H]12 [Example 548, (4R,5S,6R)-6-((R)-1-(2-(1H-tetrazol-1-yl)acetamido)ethyl)-3-((3S,5S)-5-((2S,3R,4R)-3-amino-4-hydroxy-2-(hydroxymethyl)pyrrolidine-1-carbonyl)pyrrolidin-3-ylthio)-4-methyl-7-oxo-1-azabicyclo[3.2.0]hept-2-ene-2-carboxylic acid]"

# Source: patent US11180504B2 (ORCHID PHARMA LTD., priority 2016, dated 2021)
